Biological target: recombinant human CCR5 receptor (Homo sapiens, UniProt P51681)
Test: MIP-1α radioligand binding assay (scintillation proximity, CHO cell membranes)
Details: displacement of 0.1 nM iodinated MIP-1α from membranes of Chinese hamster ovary cells expressing recombinant human CCR5; average if tested more than once
Description: The ability of compounds to inhibit the binding of MIP-1α was assessed by an in vitro radioligand binding assay. Membranes were prepared from Chinese hamster ovary cells which expressed the recombinant human CCR5 receptor. These membranes were incubated with 0.1 nM iodinated MIP-1α, scintillation proximity beads and various concentrations of the compounds of the invention in 96-well plates. The amount of iodinated MIP-1α bound to the receptor was determined by scintillation counting.
In Table II the results are presented as Pic50 values. […] If a as tested more than once then the data below is an average of the probative tests

recombinant human CCR5 receptor, sequence (P51681 whole entry): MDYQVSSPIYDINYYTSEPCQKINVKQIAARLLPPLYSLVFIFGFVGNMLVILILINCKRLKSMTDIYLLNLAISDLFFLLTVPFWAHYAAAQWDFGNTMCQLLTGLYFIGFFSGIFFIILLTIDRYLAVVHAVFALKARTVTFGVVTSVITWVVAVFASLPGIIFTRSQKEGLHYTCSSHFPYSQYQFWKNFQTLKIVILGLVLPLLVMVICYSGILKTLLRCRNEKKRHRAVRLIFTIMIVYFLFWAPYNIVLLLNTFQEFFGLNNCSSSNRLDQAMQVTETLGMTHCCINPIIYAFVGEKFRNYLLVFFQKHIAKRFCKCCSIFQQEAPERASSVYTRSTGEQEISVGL

**Q.** How did the IC50 turn out when CCN(C(=O)Cc1ccc(S(C)(=O)=O)cc1)C1CCN(CC[C@@H](c2cc(F)cc(F)c2)C2CCN(S(C)(=O)=O)CC2)CC1 [Compound 1, N-(1-{(3R)-3-(3,5-difluorophenyl)-3-[1-(methylsulfonyl)piperidin-4-yl]propyl}piperidin-4-yl)-N-ethyl-2-[4-(methylsulfonyl)phenyl]-acetamide] was run?
**A.** Its IC50 is 0.316 nM.

**Q.** Which IC50 does the source give for CCN(C(=O)NCc1ccc(S(C)(=O)=O)cc1)C1CCN(CC[C@@H](c2cc(F)cc(F)c2)C2CCN(S(C)(=O)=O)CC2)CC1 [Compound 2] here?
**A.** The IC50 was 0.501 nM.

**Q.** CCN(C(=O)Cc1ccc(S(C)(=O)=O)cc1)C1CCN(CC[C@@H](c2cccc(C(F)(F)F)c2)C2CCN(S(C)(=O)=O)CC2)CC1 [Compound 3] was tested. Which IC50 did it give?
**A.** The IC50 was 3.55 nM.

**Q.** Which IC50 does the source give for CS(=O)(=O)c1ccc(CC(=O)N(C2CC2)C2CCN(CC[C@@H](c3cc(F)cc(F)c3)C3CCN(S(C)(=O)=O)CC3)CC2)cc1 [Compound 4] here?
**A.** The IC50 was 1.58 nM.

Reference: patent US20070259914A1, “Novel Piperidine Derivates as Modulators of Chemokine Receptor Ccr5” (priority 2004, published 2007)
